In US20230151432A1, “KIF18A INHIBITORS FOR TREATMENT OF NEOPLASTIC DISEASES” (AMGEN INC., priority 2020, published 2023):

Tests used:
[1] = tested on: panel of cell lines (HCC-1806, HCC-1937, BT-549, MDA-MB-157, MCF-7, CAL-51, MDA-MB-453, ZR-75-1, OVCAR-3, OVCAR-5); test: 96 h cell growth assay (Example 19); format: cell-based; details: Homo sapiens, KIF18A inhibitor-sensitive cells (e.g., OVCAR-3 and BT-549), read-out: Mean Count EC50
Protocol: KIF18A inhibitor cancer cell line sensitivity profiles were determined for KIF18A inhibitor Compounds C9 and C11. Cells of various cancer cell lines were treated with DMSO or increasing concentrations of C9 or C11 for 96 h. The concentration-response profiles of some cancer cell lines (including, e.g., BT-549, OVCAR-3) for C11 were similar. […] Cancer cell lines CAL-51, MDA-MG-453 and OVCAR-5 were insensitive to C9 and C11.
Cell growth assay. A panel of cell lines (HCC-1806, HCC-1937, BT-549, MDA-MB-157, MCF-7, CAL-51, MDA-MB-453, ZR-75-1, OVCAR-3, OVCAR-5) were seeded in 96-well plate at densities optimized for 96 h cell growth assay. The next day, cells were treated with DMSO or one of the following compounds: KIF18A Inhibitor Compounds C9 and C11, or palbociclib, with top concentration of 6 μM (19-point concentration range) using staggered dose method. After 96 h, cells were fixed, stained, imaged, and analyzed as described above. Valid nuclear object counts were determined for each well and Count POC value was computed using the following formula [Count POC=(valid nuclear object count in treated well)+(valid nuclear object count in DMSO treated wells)×100]. Concentration-response curve-fitting was performed by 4-parameter non-linear regression equation using GraphPad Prism 7.05. Mean Count EC50 value was computed for each cell line from two independent experiments run in duplicate. […]

[2] = target: T1, human KIF18A (residues 1-467) (Homo sapiens, UniProt Q8NI77); test: KIF18A MT-ATPase motor activity, ADP-Glo luminescence assay (Example 19); format: biochemical; details: human KIF18A 4 nM, 30 μM ATP; three independent experiments; read-out: IC50, KIF18A motor activity (MT-ATPase)
T1 construct: human KIF18A (residues 1-467, 4 nM); made in house
Protocol: A trio of KIF18A inhibitors (Compound C9, Compound C11, and Compound C12) were synthesized and tested in vitro for KIF18A inhibitory activity. […] The values represent mean t SEM from three independent experiments. […] As in vivo studies in mice were planned, the mouse KIF18A inhibitory effects of Compound C9 and C12 were assayed.
KIF18A compounds C9, C11, C12 were 2-fold serially diluted over a 22-point concentration range in DMSO using 384-well plate (Corning). Recombinant truncated kinesin motor proteins (human KIF18A (residues 1-467, 4 nM), mouse KIF18A (residues 1-467, 4 nM)) were expressed and purified. ADP-Glo luminescence assay (Promega) was used to measure the MT-ATPase motor activity. Porcine brain MTs were procured from Cytoskeleton Inc. Compounds were pre-incubated for <30 min in reaction buffer (15 mM Tris, pH 7.5, 10 mM MgCl2, 0.01% Pluronic F-68, 2% DMSO, 1 μM paclitaxel, 30 μg/mL MTs) with motor proteins at concentrations indicated above, 30 μM ATP was added to initiate the enzymatic reaction for 15 min at room temperature (RT). ADP-Glo reagents were added according to manufactures protocol, the luminescence intensity proportional to ADP present was measured using an EnVision plate reader (Perkin Elmer). Raw luminescence signal data was normalized to POC (percentage of positive control) and then Activity (%) was computed [POC=100×(sample signal−negative control signal)+(positive control signal−negative control signal). Activity (%)=POC−100]. The positive control (enzyme+substrate) and negative control (substrate alone) had equivalent concentrations of DMSO. Curve-fitting and IC50 values were determined by 4-parameter non-linear regression equation (variable slope) using GraphPad Prism 7.05 (GraphPad Software).

MDA-MB-157 cells = test: pH3 and PCM spot EC50 determination; details: pH3 and PCM spot EC50 values

T1 sequence (Q8NI77 1-467): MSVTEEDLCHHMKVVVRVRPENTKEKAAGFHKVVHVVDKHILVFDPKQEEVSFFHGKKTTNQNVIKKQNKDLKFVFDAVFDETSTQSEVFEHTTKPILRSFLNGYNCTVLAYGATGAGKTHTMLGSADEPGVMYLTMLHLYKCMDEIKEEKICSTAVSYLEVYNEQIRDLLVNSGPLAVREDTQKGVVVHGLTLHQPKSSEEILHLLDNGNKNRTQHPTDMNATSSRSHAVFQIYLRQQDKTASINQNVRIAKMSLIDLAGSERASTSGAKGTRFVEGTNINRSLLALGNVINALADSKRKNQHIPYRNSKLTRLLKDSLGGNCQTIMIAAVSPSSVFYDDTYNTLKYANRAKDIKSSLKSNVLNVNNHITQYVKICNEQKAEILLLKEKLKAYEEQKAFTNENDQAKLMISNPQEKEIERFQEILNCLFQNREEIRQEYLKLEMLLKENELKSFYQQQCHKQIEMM
T1 sequence (P02550 whole entry partner, the tested form may be a part): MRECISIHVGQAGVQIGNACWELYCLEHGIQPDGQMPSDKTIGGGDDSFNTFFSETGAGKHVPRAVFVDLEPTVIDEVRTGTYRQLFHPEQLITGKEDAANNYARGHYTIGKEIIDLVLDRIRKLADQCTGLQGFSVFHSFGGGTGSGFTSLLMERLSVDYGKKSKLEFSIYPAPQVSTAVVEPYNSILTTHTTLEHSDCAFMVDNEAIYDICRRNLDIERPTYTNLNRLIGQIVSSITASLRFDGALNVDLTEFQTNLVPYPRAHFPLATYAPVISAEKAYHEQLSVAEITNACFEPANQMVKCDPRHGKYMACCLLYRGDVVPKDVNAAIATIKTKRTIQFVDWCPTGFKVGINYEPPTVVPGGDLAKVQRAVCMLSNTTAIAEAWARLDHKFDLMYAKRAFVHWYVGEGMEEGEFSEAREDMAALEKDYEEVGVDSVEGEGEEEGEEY
T1 sequence (P02554 whole entry partner, the tested form may be a part): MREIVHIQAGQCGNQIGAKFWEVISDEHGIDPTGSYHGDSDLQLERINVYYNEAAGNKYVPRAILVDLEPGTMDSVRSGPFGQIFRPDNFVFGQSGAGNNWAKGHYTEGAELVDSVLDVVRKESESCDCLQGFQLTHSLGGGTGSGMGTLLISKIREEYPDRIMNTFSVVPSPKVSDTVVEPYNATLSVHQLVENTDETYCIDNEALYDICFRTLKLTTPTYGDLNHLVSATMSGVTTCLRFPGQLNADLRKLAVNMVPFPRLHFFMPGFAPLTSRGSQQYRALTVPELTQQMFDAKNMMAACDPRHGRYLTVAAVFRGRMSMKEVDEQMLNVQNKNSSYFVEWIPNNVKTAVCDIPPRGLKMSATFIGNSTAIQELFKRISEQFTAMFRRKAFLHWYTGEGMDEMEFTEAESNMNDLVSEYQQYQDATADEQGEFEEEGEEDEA

CC(C)(C)NS(=O)(=O)c1cccc(NC(=O)c2ccc(S(=O)(=O)NC(C)(C)C)cc2N2CCC3(CC2)CC3)c1 [Compound C9, 4-(N-(tert-butyl)sulfamoyl)-N-(3-(N-(tert-butyl)sulfamoyl)phenyl)-2-(6-azaspiro[2.5]octan-6-yl)benzamide]
EC50 [1]: 21 nM | IC50 [2]: 180 nM | improvement of cell potency relative to a control compound (MDA-MB-157 cells): > 450 fold

CC(C)(CO)Nc1ccc(C(=O)Nc2cccc(S(=O)(=O)C3CCCC3)c2)c(N2CCC3(CC2)CC3)n1 [Compound C11, N-(3-(cyclopentylsulfonyl)phenyl)-6-((1-hydroxy-2-methylpropan-2-yl)amino)-2-(6-azaspiro[2.5]octan-6-yl)nicotinamide]
EC50 [1]: 47 nM | IC50 [2]: 70 nM | improvement of cell potency relative to a control compound (MDA-MB-157 cells): > 70 fold
